Tests used:
[1] = target: T1, NMDAR2A (Homo sapiens, UniProt Q12879); experiment: [3H]MK-801 binding, NMDAR2A expressing HEK cell membranes; assay type: biochemical; conditions: 50 μM glutamate; for EC50: read-out: NMDAR2A B: log EC50 (converted); for Emax: read-out: NMDAR2A A: % maximal [3H]MK-801 binding relative to 1 mM glycine
T1 construct: expressed in transfected cells; host or cells: HEK cells (membrane extract)
Method: (§1) Assays were conducted as described by Moskal et al., “GLYX-13: a monoclonal antibody-derived peptide that acts as an N-methyl-D-aspartate receptor modulator,” Neuropharmacology, 49, 1077-87, 2005. These studies were designed to determine if the test compounds act to facilitate NMDAR activation in NMDAR2A, NMDAR2B, NMDAR2C or NMDAR2D expressing HEK cell membranes as measured by increases in [^3H]MK-801 binding.
(§2) In the assay, 300 μg of NMDAR expressing HEK cell membrane extract protein was preincubated for 15 minutes at 25° C. in the presence of saturating concentrations of glutamate (50 μM) and varying concentrations of test compound (1×10^−15M−1×10^−7M), or 1 mM glycine. Following the addition of 0.3 μCi of [^3H]MK-801 (22.5 Ci/mmol), reactions were again incubated for 15 minutes at 25° C. (nonequilibrium conditions). Bound and free [^3H]MK-801 were separated via rapid filtration using a Brandel apparatus.
(§3) In analyzing the data, the DPM (disintegrations per minute) of [^3H]MK-801 remaining on the filter were measured for each concentration of test compound or for 1 mM glycine. The DPM values for each concentration of a ligand (N=2) were averaged. The baseline value was determined from the best fit curve of the DPM values modeled using the GraphPad program and the log(agonist) vs. response(three parameters) algorithm was then subtracted from all points in the dataset. The % maximal [^3H]MK-801 binding was then calculated relative to that of 1 mM glycine: all baseline subtracted DPM values were divided by the average value for 1 mM glycine. The EC50 and % maximal activity were then obtained from the best fit curve of the % maximal [^3H]MK-801 binding data modelled using the GraphPad program and the log(agonist) vs. response(three parameters) algorithm.
(§4) The tables below summarize the results for the wild type NMDAR agonists NMDAR2A, NMDAR2B, NMDAR2C, and NMDAR2D, and whether the compound is not an agonist (−), is an agonist (+), or is a strong agonist (++), where column A is based on the % maximal [^3H]MK-801 binding relative to 1 mM glycine (−=0; <100%=+; and >100%=++); and column B is based on log EC50 values (0=−; ≥1×10^−9M (e.g., −8)=+; and <1×10^−9M (e.g., −10)=++).

[2] = target: T2, NMDAR2B (Homo sapiens, UniProt Q13224); experiment: [3H]MK-801 binding, NMDAR2B expressing HEK cell membranes; assay type: biochemical; conditions: 50 μM glutamate; for EC50: read-out: NMDAR2B B: log EC50 (converted); for Emax: read-out: NMDAR2B A: % maximal [3H]MK-801 binding relative to 1 mM glycine
T2 construct: expressed in transfected cells; host or cells: HEK cells (membrane extract)
Method: as §1, §2, §3, §4

[3] = target: T3, NMDAR2D (Homo sapiens, UniProt O15399+Q05586); experiment: [3H]MK-801 binding, NMDAR2D expressing HEK cell membranes; assay type: biochemical; conditions: 50 μM glutamate; for Emax: read-out: NMDAR2D A: % maximal [3H]MK-801 binding relative to 1 mM glycine; for EC50: read-out: NMDAR2D B: log EC50 (converted)
T3 construct: expressed in transfected cells; host or cells: HEK cells (membrane extract)
Method: as §1, §2, §3, §4

[4] = target: T4, NMDAR2C (Homo sapiens, UniProt Q14957); experiment: [3H]MK-801 binding, NMDAR2C expressing HEK cell membranes; assay type: biochemical; conditions: 50 μM glutamate; for EC50: read-out: NMDAR2C B: log EC50 (converted)
T4 construct: expressed in transfected cells; host or cells: HEK cells (membrane extract)
Method: as §1, §2, §3, §4

[5] = target: T5, NMDAR2D (Homo sapiens, UniProt O15399); experiment: [3H]MK-801 binding, NMDAR2D expressing HEK cell membranes; assay type: biochemical; conditions: 50 μM glutamate
T5 construct: expressed in transfected cells; host or cells: HEK cells (membrane extract)
Method: as §1, §2, §3, §4

[6] = IV pharmacokinetics; assay type: in vivo, Sprague Dawley rats; conditions: Sprague Dawley, rat, in vivo, iv, 2 mg/kg, normal saline (compounds marked * in 1% NMP and 99% normal saline); for C0: read-out: C0; for Vd: read-out: Vss
From the text: The table below summarizes the results of the IV pharmacokinetics.

[7] = Oral pharmacokinetics (plasma, brain, CSF); conditions: rat, 10 mg/kg, per os; for bioavailability: % F; for AUC(0-t): AUClast
Method: Plasma, brain, and CSF samples were analyzed at various time points over a 24 hour period.

[8] = tested on: rats' response (reduced floating time); experiment: Porsolt forced swim test; assay type: in vivo, Sprague Dawley rats
Method: A non-clinical in vivo pharmacology study (Porsolt assay) was performed to measure antidepressant-like effects. A negative control (0.5% sodium carboxymethyl cellulose in 0.9% sterile saline vehicle) and a positive control (fluoxetine) are shown for comparison against test compound. The study allowed for the evaluation of the effects of each compound on the Porsolt forced swim test as assessed by the rats' response (reduced floating time) during a 5-minute swimming test.
Male 2-3 month old Sprague Dawley rats were used (Harlan, Indianapolis, Ind.). Rats were housed in Lucite cages with aspen wood chip bedding, maintained on a 12:12 light:dark cycle (lights on at 5 AM), and given ad libitum access to Purina lab chow (USA) and tap water throughout the study.
The Porsolt forced swim test adapted for use in rats was performed as described by Burgdorf et al., (The long-lasting antidepressant effects of rapastinel (GLYX-13) are associated with a metaplasticity process in the medial prefrontal cortex and hippocampus. Neuroscience 308:202-211, 2015). Animals were placed in a 46 cm tall×20 cm in diameter clear glass tube filled to 30 cm with tap water (23±1° C.) for 15 min on the first day (habituation) and 5 min on the subsequent test day. Positive control fluoxetine was dosed 3 times (24 h, 5 h and 1 h) prior to testing. Animals were tested 1 h post-dosing with the test compounds or vehicle. Animals received a 15 min habituation session 1 day before the 5 min test. A subset of compounds tested at 1 h post-dosing were retested at 1 wk post-dosing in the same sets of animals. Water was changed after every other animal. Animals were videotaped, and floating time as defined as the minimal amount of effort required to keep the animals head above water was scored offline by a blinded experimenter with high inter-rater reliability (Pearson's r>0.9).
Each compound tested at dose level shown. Significance vs. vehicle group for each experiment is marked. […] A compound marked “No” was not statistically significant from vehicle. Data was averaged for test compound and vehicle groups (N approximately 8 per group) and the percent reduction in floating for group treated with test compound relative to group treated with vehicle is shown.

[9] = Sprague Dawley, plasma, po, normal saline (compounds marked * in 1% NMP and 99% normal saline)
[10] = normal saline (compounds marked * in 1% NMP and 99% normal saline)
[11] = Sprague Dawley, plasma, po, Tmax, normal saline (compounds marked * in 1% NMP and 99% normal saline)
[12] = 1 h post-dose, 0.1 mg/kg; Yes = p<=0.05 from vehicle

T2 sequence (Q13224 27-1484, species assumed, other chains not shown): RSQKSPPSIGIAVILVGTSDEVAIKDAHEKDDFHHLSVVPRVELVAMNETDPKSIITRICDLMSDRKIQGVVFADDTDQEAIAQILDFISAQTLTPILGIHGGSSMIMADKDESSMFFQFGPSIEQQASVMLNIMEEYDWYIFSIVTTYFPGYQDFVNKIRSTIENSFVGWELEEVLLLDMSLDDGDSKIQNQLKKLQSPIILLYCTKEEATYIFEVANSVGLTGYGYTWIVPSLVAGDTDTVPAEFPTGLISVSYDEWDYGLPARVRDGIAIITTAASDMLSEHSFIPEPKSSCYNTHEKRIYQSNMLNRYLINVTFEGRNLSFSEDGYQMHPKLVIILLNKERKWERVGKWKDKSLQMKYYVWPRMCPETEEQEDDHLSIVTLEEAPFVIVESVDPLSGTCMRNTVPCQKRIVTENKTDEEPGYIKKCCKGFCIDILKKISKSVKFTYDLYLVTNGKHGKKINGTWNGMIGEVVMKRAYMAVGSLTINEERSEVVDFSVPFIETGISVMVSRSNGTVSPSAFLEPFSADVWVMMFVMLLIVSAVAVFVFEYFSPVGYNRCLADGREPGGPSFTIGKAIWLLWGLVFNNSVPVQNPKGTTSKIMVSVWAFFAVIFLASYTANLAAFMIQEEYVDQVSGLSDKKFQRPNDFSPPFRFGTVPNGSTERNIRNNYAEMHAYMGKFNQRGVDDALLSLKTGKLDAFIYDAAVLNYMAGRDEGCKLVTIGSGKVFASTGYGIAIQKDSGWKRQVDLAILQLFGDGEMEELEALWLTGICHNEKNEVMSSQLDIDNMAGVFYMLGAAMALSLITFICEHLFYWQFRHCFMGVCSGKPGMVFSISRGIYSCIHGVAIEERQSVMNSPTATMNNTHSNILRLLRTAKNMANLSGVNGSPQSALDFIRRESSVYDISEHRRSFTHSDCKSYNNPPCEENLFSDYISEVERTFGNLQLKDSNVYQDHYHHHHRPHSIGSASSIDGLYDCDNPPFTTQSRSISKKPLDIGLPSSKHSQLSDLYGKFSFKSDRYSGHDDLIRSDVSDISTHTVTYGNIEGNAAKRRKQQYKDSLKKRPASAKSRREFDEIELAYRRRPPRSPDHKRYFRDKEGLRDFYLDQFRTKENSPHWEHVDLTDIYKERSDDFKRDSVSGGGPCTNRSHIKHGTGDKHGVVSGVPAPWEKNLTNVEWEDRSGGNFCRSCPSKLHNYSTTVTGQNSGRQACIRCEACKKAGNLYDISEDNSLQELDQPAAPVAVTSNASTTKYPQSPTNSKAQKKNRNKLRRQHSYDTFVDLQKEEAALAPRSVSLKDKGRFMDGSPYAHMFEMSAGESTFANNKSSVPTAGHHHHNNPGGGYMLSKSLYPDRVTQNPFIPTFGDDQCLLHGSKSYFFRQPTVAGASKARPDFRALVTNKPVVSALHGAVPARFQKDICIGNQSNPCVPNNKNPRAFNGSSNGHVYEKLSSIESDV
T3 sequence (O15399 28-1336, species assumed, other chains not shown): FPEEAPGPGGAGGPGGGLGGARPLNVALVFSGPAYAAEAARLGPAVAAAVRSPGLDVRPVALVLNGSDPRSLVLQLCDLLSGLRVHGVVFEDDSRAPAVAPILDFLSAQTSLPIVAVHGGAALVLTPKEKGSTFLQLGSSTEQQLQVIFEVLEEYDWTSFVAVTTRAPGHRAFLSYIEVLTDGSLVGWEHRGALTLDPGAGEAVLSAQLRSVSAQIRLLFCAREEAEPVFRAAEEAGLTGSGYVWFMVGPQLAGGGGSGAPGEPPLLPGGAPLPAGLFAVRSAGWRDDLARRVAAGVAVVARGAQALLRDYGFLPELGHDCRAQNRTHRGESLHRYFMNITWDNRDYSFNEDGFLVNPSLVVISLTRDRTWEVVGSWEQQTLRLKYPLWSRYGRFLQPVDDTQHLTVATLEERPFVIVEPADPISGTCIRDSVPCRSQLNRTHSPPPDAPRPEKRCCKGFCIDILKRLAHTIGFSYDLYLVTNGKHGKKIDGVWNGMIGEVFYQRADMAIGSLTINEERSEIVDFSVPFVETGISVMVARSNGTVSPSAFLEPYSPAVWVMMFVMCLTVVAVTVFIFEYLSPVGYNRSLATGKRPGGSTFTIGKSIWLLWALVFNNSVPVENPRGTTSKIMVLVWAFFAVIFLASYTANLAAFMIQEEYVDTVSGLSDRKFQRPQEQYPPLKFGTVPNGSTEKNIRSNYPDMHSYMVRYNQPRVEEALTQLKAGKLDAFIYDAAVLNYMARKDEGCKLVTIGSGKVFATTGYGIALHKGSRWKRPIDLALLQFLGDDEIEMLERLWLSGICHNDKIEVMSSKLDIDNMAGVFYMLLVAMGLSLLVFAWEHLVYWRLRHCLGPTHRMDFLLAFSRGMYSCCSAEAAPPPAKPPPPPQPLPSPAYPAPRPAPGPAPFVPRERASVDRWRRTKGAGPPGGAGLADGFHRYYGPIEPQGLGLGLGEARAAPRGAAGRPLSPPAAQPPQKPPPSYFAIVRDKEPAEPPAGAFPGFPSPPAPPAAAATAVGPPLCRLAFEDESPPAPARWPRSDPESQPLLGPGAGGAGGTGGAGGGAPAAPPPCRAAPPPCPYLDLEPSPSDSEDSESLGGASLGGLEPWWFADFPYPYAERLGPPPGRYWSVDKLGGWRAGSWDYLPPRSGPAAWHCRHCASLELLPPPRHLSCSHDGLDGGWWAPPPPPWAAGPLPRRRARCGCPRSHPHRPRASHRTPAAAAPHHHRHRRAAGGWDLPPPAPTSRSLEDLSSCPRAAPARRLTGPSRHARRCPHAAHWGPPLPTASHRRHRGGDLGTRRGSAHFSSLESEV
T4 sequence (Q14957 20-1233, species assumed, other chains not shown): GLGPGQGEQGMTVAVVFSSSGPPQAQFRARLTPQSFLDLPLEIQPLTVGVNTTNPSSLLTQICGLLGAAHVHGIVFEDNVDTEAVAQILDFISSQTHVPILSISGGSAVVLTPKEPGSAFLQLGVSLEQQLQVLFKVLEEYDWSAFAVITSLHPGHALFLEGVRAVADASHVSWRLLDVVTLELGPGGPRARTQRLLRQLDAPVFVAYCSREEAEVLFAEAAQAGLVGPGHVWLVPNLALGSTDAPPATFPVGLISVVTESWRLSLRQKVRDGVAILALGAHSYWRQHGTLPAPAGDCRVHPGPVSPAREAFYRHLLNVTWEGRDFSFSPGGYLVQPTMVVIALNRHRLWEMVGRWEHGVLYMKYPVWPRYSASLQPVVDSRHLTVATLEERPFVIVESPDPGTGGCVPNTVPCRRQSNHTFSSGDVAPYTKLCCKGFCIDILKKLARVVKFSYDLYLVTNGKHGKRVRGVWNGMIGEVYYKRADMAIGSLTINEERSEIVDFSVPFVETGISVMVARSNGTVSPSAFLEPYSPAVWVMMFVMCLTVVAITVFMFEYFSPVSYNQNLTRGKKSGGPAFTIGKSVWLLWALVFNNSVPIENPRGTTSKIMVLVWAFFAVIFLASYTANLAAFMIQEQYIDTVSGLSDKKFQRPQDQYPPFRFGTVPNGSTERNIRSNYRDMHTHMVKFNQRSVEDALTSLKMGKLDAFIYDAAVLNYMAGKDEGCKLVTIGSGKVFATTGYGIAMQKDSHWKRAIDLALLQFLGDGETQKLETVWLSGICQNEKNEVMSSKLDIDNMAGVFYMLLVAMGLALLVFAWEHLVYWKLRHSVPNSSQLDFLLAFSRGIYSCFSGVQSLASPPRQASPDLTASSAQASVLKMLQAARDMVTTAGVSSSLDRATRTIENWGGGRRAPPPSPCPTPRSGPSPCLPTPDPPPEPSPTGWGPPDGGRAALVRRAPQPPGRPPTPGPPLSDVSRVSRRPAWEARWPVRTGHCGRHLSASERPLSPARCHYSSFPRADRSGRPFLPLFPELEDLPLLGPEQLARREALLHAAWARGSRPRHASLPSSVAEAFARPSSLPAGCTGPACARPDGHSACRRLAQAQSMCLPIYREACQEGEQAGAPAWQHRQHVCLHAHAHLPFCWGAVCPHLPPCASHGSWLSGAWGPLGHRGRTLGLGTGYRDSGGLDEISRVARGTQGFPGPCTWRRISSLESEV
T5 sequence (O15399 28-1336, species assumed, other chains not shown): as the sequence (O15399 28-1336, species assumed, other chains not shown) above

| NMDAR2A A: % maximal [3H]MK-801 binding relative to 1 mM glycine [1] | EC50 [1] | NMDAR2B A: % maximal [3H]MK-801 binding relative to 1 mM glycine [2] | EC50 [2] | Emax [3] | Emax [1] | NMDAR2C A: % maximal [3H]MK-801 binding relative to 1 mM glycine [4] | EC50 [4] | EC50 [3] | Emax [2] | AUC(0-t) [6] | clearance [6] | half-life [6] | C0 [6] | Vd [6] | Cmax [7, 9] | bioavailability ([7]; Sprague Dawley, plasma, po) | AUC(0-t) [7, 9] | Tmax [7, 11] | CSF Cmax [7] | SMILES | also measured |
| --- | --- | --- | --- | --- | --- | --- | --- | --- | --- | --- | --- | --- | --- | --- | --- | --- | --- | --- | --- | --- | --- |
| – | < 1 nM | − (−=0) | – | < 100% | < 100% | + (<100%=+) | > 1 nM | < 1 nM | – | – | – | – | – | – | – | – | – | – | – | CC(C)(C)OC(=O)N1CCNC2(CNC2=O)C1 (single isomer, unassigned) [EB-1, Tort-Butyl 1-Oxo-2,5,8-Triazaspiro[3.5]Nonane-8-Carboxylate] | – |
| + (<100%=+) | < 1 nM | + (<100%=+) | > 1 nM | – | – | + (<100%=+) | < 1 nM | – | – | – | – | – | – | – | – | – | – | – | – | CC(C)(C)OC(=O)N1CCNC2(CNC2=O)C1 (single isomer, unassigned) [EB-2, Tort-Butyl 1-Oxo-2,5,8-Triazaspiro[3.5]Nonane-8-Carboxylate] | NMDAR2D A: % maximal [3H]MK-801 binding relative to 1 mM glycine [5]: + (<100%=+); EC50 ([5]; read-out: NMDAR2D B: log EC50 (converted)): < 1 nM |
| – | < 1 nM | – | – | < 100% | < 100% | – | – | < 1 nM | 0% | – | – | – | – | – | – | – | – | – | – | C[C@@H](O)[C@H](N)C(=O)N1CCN(C(=O)OC(C)(C)C)CC12CNC2=O (single isomer, unassigned) [EC-1, Tert-Butyl 5-(L-Threonyl)-1-Oxo-2,5,8-Triazaspiro[3.5]Nonane Carboxylate] | – |
| – | – | – | < 1 nM | 0% | 0% | − (−=0) | – | – | < 100% | – | – | – | – | – | – | – | – | – | – | CC(C)(C)OC(=O)N1CCN(C(=O)OC(C)(C)C)C2(CNC2=O)C1 (single isomer, unassigned) [EE-1, Di-Tert-Butyl 1-Oxo-2,5,8-Triazaspiro[3.5]Nonane-5,8-Dicarboxylate] | – |
| + (<100%=+) | < 1 nM | − (−=0) | – | < 100% | – | – | – | < 1 nM | – | 2260 ng·h/mL | 15 mL/min/kg | 48 min | 6460 ng/mL | 0.4 L/kg | 1620 ng/mL | 51% | 5740 ng·h/mL | 100 min | 7 ng/mL | C[C@@H](O)[C@H](N)C(=O)N1CCNC2(CNC2=O)C1 (single isomer, unassigned) [EK-1, 8-(L-Threonyl)-2,5,8-Triazaspiro[3.5]Nonan-1-One] | Brain Cmax [7]: 0 ng/mL |
| – | – | – | < 1 nM | 0% | – | + (<100%=+) | < 1 nM | – | – | – | – | – | – | – | – | – | – | – | – | C[C@@H](O)[C@H](N)C(=O)N1CCN(Cc2ccccc2)C2(CNC2=O)C1 (single isomer, unassigned) [EL-2, 8-(L-Threonyl)-5-Benzyl-2,5,8-Triazaspiro[3.5]Nonan-1-One] | – |
| – | – | – | < 1 nM | < 100% | 0% | − (−=0) | – | < 1 nM | < 100% | 593 ng·h/mL | 57.2 mL/min/kg | 31.2 min | 1670 ng/mL | 1.44 L/kg | 1540 ng/mL | 69% | 2050 ng·h/mL | 30 min | 232 ng/mL | CN1CCN(C(=O)OC(C)(C)C)CC12CN(CC(N)=O)C2=O (centres unmarked) [ER-117] | % reduction in float time ([8]; 1 h post-dose, 0.1 mg/kg, relative to vehicle group): 55.0%; Significance vs. vehicle [8, 12]: Yes; Brain Cmax [7]: 121 ng/mL |
| + (<100%=+) | < 1 nM | + (<100%=+) | < 1 nM | – | – | – | – | – | – | 4770 ng·h/mL | 6.84 mL/min/kg | 820 min | 13700 ng/mL | 0.73 L/kg | 2690 ng/mL | 44% | 9820 ng·h/mL | 60 min | 143 ng/mL | C[C@@H](O)[C@H](N)C(=O)N1CCNC2(CCNC2=O)C1 (some centres unmarked) [ES-336] | % reduction in float time ([8]; 1 wk post-dose, 0.1 mg/kg, relative to vehicle group; 0.1 mg/kg): 86.5%; Significance vs. vehicle ([8]; 1 wk post-dose, 0.1 mg/kg; Yes = p<=0.05 from vehicle): Yes; % reduction in float time ([8]; 1 h post-dose, 0.1 mg/kg, relative to vehicle group; 0.1 mg/kg): 81.6%; Significance vs. vehicle [8, 12]: Yes; Brain Cmax [7]: 32 ng/mL |

| SMILES | NMDAR2A A: % maximal [3H]MK-801 binding relative to 1 mM glycine [1] | EC50 [1] | NMDAR2B A: % maximal [3H]MK-801 binding relative to 1 mM glycine [2] | EC50 [2] | Emax [3] | Emax [1] | NMDAR2C A: % maximal [3H]MK-801 binding relative to 1 mM glycine [4] | EC50 [4] | EC50 [3] | Emax [2] | AUC(0-t) [6] | clearance [6] | half-life [6] | C0 [6] | Vd [6] | Cmax [7, 9] | bioavailability ([7]; Sprague Dawley, plasma, po) | AUC(0-t) [7, 9] | Tmax [7, 11] | CSF Cmax [7] | also measured |
| --- | --- | --- | --- | --- | --- | --- | --- | --- | --- | --- | --- | --- | --- | --- | --- | --- | --- | --- | --- | --- | --- |
| O=C1NCC12CN(Cc1ccccc1)CCN2Cc1ccccc1 (single isomer, unassigned) [EA-1, 5,8-Dibenzyl-2,5,8-Triazaspiro[3.5]Nonan-1-One] | + (<100%=+) | < 1 nM | + (<100%=+) | < 1 nM | 0% | – | – | – | – | – | – | – | – | – | – | – | – | – | – | – | – |
| O=C1NCC12CNCCN2Cc1ccccc1 (single isomer, unassigned) [ED-1, 5-Benzyl-2,5,8-Triazaspiro[3.5]Nonan-1-One] | – | – | − (−=0) | – | < 100% | 0% | – | – | < 1 nM | – | 1020 ng·h/mL | 32.1 mL/min/kg | 47.4 min | 1180 ng/mL | 1.88 L/kg | 2800 ng/mL | – | – | – | – | % F [7]: 138%; AUClast [7, 10]: 7053.49 ng·h/mL; Tmax [7, 10]: 40.2 min |

Reference: patent publication US20230131402A1, “SPIRO-LACTAM NMDA RECEPTOR MODULATORS AND USES THEREOF” (Aptinyx Inc., priority 2016, published 2023)
